How the values were obtained:
Type in all cases: binding
[1] = target: T1, OaPAC (photoactivated adenylate cyclase) (Oxynema acuminatum, UniProt K9TLZ5); assay: ITC (also nanoDSF, DSC, flavin-emission thermal shift, SAXS); parameters: gene Oscil6304_3613; Full-length OaPAC (366 aa, homodimer), dark-adapted state
T1 sequence (K9TLZ5 1-366): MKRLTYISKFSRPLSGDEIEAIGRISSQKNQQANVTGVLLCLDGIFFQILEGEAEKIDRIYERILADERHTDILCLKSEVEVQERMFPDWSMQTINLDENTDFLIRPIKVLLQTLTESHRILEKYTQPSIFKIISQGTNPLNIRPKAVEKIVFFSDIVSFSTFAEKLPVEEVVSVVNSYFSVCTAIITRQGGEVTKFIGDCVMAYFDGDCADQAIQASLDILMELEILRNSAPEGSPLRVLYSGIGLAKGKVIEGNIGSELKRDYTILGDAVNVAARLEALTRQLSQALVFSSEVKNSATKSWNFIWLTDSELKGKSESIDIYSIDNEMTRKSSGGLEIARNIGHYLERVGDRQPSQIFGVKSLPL

[2] = target: T1, OaPAC (photoactivated adenylate cyclase); assay: ITC (also nanoDSF, SAXS titration, CD); parameters: gene Oscil6304_3613; Full-length OaPAC (366 aa, homodimer), dark-adapted state
[3] = target: T1, OaPAC (photoactivated adenylate cyclase); assay: steady-state fluorescence anisotropy; stopped-flow fluorescence (KD […]); parameters: gene Oscil6304_3613; Full-length OaPAC (366 aa, homodimer)

`Nc1ncnc2c1ncn2[C@@H]1O[C@H](COP(=O)(O)CP(=O)(O)OP(=O)(O)O)[C@@H](O)[C@H]1O` [ApCpp, Adenosine-5’-[(α,β)-methyleno]triphosphate] gave a Kd [1] of 5.92 ± 5.06 µM.

`Nc1ncnc2c1ncn2[C@@H]1O[C@H](COP(=O)(O)OP(=O)(O)OP(=O)(O)O)[C@@H](O)[C@H]1O` [ATP] was tested, and the Kd [2] was 3.24 ± 1.9 µM.

In the case of `CNc1ccccc1C(=O)O[C@H]1[C@@H](O)[C@H](n2cnc3c(N)ncnc32)O[C@@H]1CO[P@@](=O)(O)O[P@](=O)(O)OP(=O)(O)O` [mantATP], the Kd [3] is reported as 2.25 ± 0.4 µM.

From paper PMC10837130, “ATP-dependent conformational dynamics in a photoactivated adenylate cyclase revealed by fluorescence spectroscopy and small-angle X-ray scattering” (Communications Biology, 2024)
